Patent US9359341B2, “Aldehyde derivative of substitute oxazolidinones” (WANBURY LTD., priority 2012, dated 2016)

Legend:
Type in all cases: in vitro ADME
[1] = In vitro liver microsomal stability assay (mouse); details: mouse liver microsomes
Protocol: (§1) Liver microsomal stability assays are conducted at 1 mg per mL liver microsome protein with an NADPH in phosphate buffer (100 mM, pH 7.4). Test compounds (compound of formula B of the invention) are prepared as solutions in 20% methanol-water and added to the assay mixture (final assay concentration 1 μM) and incubated at 37° C. Aliquots (100.μ·L) are taken out at times 0, 15, and 30 minutes, and diluted with ice cold acetonitrile containing IS (200.mu·L) to stop the reactions. Samples are centrifuged at 10,000 RPM for 5 minutes to precipitate proteins. Supernatants are transferred to micro centrifuge tubes and stored at −20° C. for analysis of LC/MS/MS. The percent parent remaining of the test substance is calculated as Ratio of peak area at each time point to peak area ratio at zero min, multiplied by 100. The compound formula (B) is converted to Rivaroxaban in microsomal assay.

[2] = In vitro liver microsomal stability assay (rat); details: rat liver microsomes
Protocol: as §1

[3] = biological target: CYP3A4 (Homo sapiens (Human), UniProt P08684); test: CYP inhibition assay; details: pooled human liver microsomes; extrapolated IC50 derived from 3 μM; read-out: IC50 (μM) of CYP isoforms, 3A4
Protocol: The ability of substances to inhibit CYP1A2, CYP2C9, CYP2D6, CYP2C19, CYP2J2 and CYP3A4 in humans was investigated with pooled human liver microsomes as enzyme source in the presence of standard substrates (see below) which form CYP-isoform-specific metabolites.
Standard incubation mixtures comprise NADPH and substrates in 100 mM phosphate buffer (pH 7.4) in a total volume of 200 μl. Test compound are dissolved in acetonitrile. Incubated with pooled human liver microsomes at 37° C. for a defined time. The reactions are stopped by adding 100 μl of acetonitrile in which a suitable internal standard is always present. Precipitated proteins are removed by centrifugation, and the supernatants analyzed by LC-MS/MS.

[4] = metabolised to rivaroxaban from zero min

Chain of CYP3A4 (P08684 whole entry, canonical isoform): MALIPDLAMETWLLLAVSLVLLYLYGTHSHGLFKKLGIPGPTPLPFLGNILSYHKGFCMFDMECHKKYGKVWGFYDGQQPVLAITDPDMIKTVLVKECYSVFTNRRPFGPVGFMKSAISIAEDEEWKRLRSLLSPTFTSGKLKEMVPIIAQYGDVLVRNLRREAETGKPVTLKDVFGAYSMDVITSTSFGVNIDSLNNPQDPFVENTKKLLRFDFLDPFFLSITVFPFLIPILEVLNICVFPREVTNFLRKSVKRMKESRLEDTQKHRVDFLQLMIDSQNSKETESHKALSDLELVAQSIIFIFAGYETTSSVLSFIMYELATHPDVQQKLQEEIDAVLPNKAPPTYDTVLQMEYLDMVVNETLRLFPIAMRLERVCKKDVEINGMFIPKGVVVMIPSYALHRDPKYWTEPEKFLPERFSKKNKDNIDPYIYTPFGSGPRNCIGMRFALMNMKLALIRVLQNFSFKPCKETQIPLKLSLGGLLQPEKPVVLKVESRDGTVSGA

Observation (metabolism; for Test Product: of the formed rivaroxaban) [1]: shown metabolism | amount of test product detected [1, 4]: min. Neglible | Observation (metabolism; for Test Product: of the formed rivaroxaban) [2]: shown metabolism | amount of test product detected [2, 4]: min. Neglible | IC50 [3]: 5.7 µM
SMILES: O=CN(C[C@H]1CN(c2ccc(N3CCOCC3=O)cc2)C(=O)O1)C(=O)c1ccc(Cl)s1 [Compound formula B, 5-chloro-N-formyl-N-({(5S)-2-oxo-3-[4-(3-oxomorpholin-4-yl)phenyl]-1,3-oxazolidin-5-yl}methyl)thiophene-2-carboxamide]
